B1: partially purified native β-chain: crude preparation of native β-hCG (protein, UniProt P0DN86 21-165, looked up)
Choriogonadotropin subunit …: SKEPLRPRCRPINATLAVEKEGCPVCITVNTTICAGYCPTMTRVLQGVLPALPQVVCNYRDVRFESIRLPGCPRGVNPVVSYAVALSCQCALCRRSTTDCGGPKDHPLTCDDPRFQDSSSSKAPPPSLPSPSRLPGPSDTPILPQ
modifications: native, partially purified
notes: crude preparation of native β-hCG

In one experiment the test system is Hematopoietic progenitor cells from normal bone marrow and cord blood. In words: Clonogenic (colony) assays of hematopoietic progenitor cells in methylcellulose (CFU-MIX, BFU-e, CFU-GM). Format: cell-based, human. To be noted: hCG preparations 200 IU/ml; subunits and peptides 100 μg/ml; 10 days; aggregates of more than 50 cells counted. The text has this: Hematopoietic progenitor cells (2×10^5 cell/ml) were isolated from normal bone marrow and cord blood and seeded in methylcellulose. […] Aggregates containing more than 50 cells after 10 days of culture were counted as colonies.
“α-hCG peptide 88-92: α-hCG peptide of amino acids 88-92 (YYHKS; UniProt P01215 112-116, looked up, fragment)”: the “growth of hematopoietic progenitors (pro-hematopoietic activity, colony numbers)” value is reported as “little or no effects”. On the same count and under the same terms, the value for “β-hCG peptide 7-40: β-hCG peptide of amino acids 7-40 (PRCRPINATLAVEKEGCPVCITVNTTICAGYCPT; UniProt P0DN86 27-60, looked up, fragment)” was “little or no effects”; that for “β-hCG peptide 34-49: β-hCG peptide of amino acids 34-49 (CAGYCPTMTRVLQGVL; UniProt P0DN86 54-69, looked up, fragment)” was “little or no effects”; that for “β-hCG peptide 38-57: β-hCG peptide of amino acids 38-57 (CPTMTRVLQGVLPALPQVVC; UniProt P0DN86 58-77, looked up, fragment)” was “little or no effects”. On the same count and under the same terms, the value for “β-hCG peptide 57-93: β-hCG peptide of amino acids 57-93 (CNYRDVRFESIRLPGCPRGVNPVVSYAVALSCQCALC; UniProt P0DN86 77-113, looked up, fragment)” was “little or no effects”; that for “β-hCG peptide 74-95: β-hCG peptide of amino acids 74-95” was “little or no effects”; that for “β-hCG peptide 100-110: β-hCG peptide of amino acids 100-110 (CGGPKDHPLTC; UniProt P0DN86 120-130, looked up, fragment)” was “little or no effects”. On the same count and under the same terms, the entry for B1 is “directly promoted”.

The same experiment, now with this note: hCG preparations 200 IU/ml; subunits and peptides 100 μg/ml; 10 days; aggregates of more than 50 cells counted; listed as whole β-chain.
With B1, the “growth of hematopoietic progenitors (pro-hematopoietic activity, colony numbers)” value is listed as “considerable pro-hematopoietic activity”.

Source of the values: patent US5968513A (priority 1996, dated 1999).
